Tested on: SW620, LS174T, SW480 and DLD-1 cells
Experiment: Wound healing assay (directed migration)
Type: cell-based, human
Conditions: 1 μM daily, 4 days, vs respective solvent-treated control
Description: For wound healing assay HCT116, SW620, LS174T, SW480 and DLD-1 cells were grown to form 60% confluent monolayers of cells in which a wound of about 300 μm width was inflicted with a sterile pipette tip. The medium was exchanged to remove non-adherent cells and the wounded monolayer was treated with 1 μM niclosamide or the respective amount of DMSO every 24 hours for 4 consecutive days. The progress of wound closure was monitored with microphotographs of 10× magnification taken with the Leica DM IL light microscope (Leica Microsystems) on day 0 and day 4. The wound healing experiment was performed three independent times.
(A) S100A4 expression under niclosamide treatment. […] S100A4 expression was analyzed with qRT-PCR and immunoblot. […] Migration rates of cells treated with 1 μM niclosamide for 24 hours were determined in a Boyden chamber assay values were normalized to solvent-treated SW620 cells. […] Invaded cells in the lower chamber were counted and normalized to solvent-treated SW620 cells. Differences in solvent vs. niclosamide-treated cells were analyzed by Student's t test. […] The amount of viable cells per well was determined by MTT assay. […] (G) Quantification of colonies formed. Number of colonies (of more than 4 cells) was counted and normalized to solvent-treated SW620 cells. Differences in solvent vs. niclosamide-treated cells were analyzed by Student's t test. […]

O=C(Nc1ccc([N+](=O)[O-])cc1Cl)c1cc(Cl)ccc1O [niclosamide, 2′,5-dichloro-4′-nitrosalicylanilide]
directed migration (wound healing): impaired
